The results in this text go back to patent US20210330818A1, “METHOD FOR ANALYZING NON-OBSERVED EFFECT CONCENTRATION (NOEC) OF CHEMICAL ON ORGANISM” (priority 2020, published 2021).

The test system of one data set is Trichogramma. In words: Chronic toxicity test on Trichogramma, egg card-dipping method. The note with it: for NOEC (smallest NOEC among the endpoint effects): Trichogramma, overall over egg yield, emergence rate, adult survival time. The source says: Trichogramma is one of the natural enemies that are most widely used and have dominant influence. As an important means to control insect pests, chemical pesticides can also cause toxic and side effects to natural enemies of the insect pests that will be killed by the chemical pesticides. […] In the test, Trichogramma was adopted as a test organism, dimethoate and imidacloprid were adopted as test chemicals, and endpoint effects were egg yield, emergence rate and adult survival time. 6 treatment concentrations (including 1 blank control and 5 test chemical concentrations, see Table 1 for details) were set for each test chemical group.
The egg card-dipping method was adopted. A 1.0 cm×2.0 cm card of rice moth eggs (approximately 100 eggs) was placed in each finger tube, then about 20 Trichogramma adults at 4 h to 6 h after emergence were introduced, and the Trichogramma adults were removed after they had parasitized the rice moth eggs for 24 h. 144 h later, the egg cards were dipped in test solutions with different concentrations separately for 5 s, then taken out and air dried, and put into finger tubes. The tubes were sealed with a black cloth, and then put in an incubator until the emergence of Trichogramma adults was completed. A 0.1% Triton X-100 aqueous solution was adopted as a blank control. 9 replicates were set for each treatment, and divided into three groups for the observation of 3 endpoint effects respectively, namely, with 3 replicates for each endpoint effect. A first group was used to investigate the egg yield; a second group was used to investigate the number of emerged adults, and the emergence rate was calculated (emergence rate=the number of emerged adults/the number of […]×100%); and a third group was used to investigate the adult survival time. If the number of emerged adults is less than 30 or the emerged adults have a low vitality and thus cannot be transferred to a new finger tube autonomously, the parasitism rate and survival time will not be investigated.

The next data set concerns quail. In words: Chronic toxicity (growth and reproduction) test for quails fed poisonous feedstuff. The class given is in vivo. To be noted: for Egg production: average daily, day 40 to 48; for Stillbirth rate: eggs of day 45 to 50; for NOEC (smallest NOEC among the endpoint effects): quail, overall over body weight, egg production, stillbirth rate. From the text:
In the test, the quail was adopted as a test organism, acetamiprid and MCPA were adopted as test chemicals, and the end effects were body weight, average daily egg production and stillbirth rate.
Healthy and lively quails, which were 30-day old and weighed 90 g to 110 g, were selected for the test. The male and female were raised separately, with 10 quails for each cage. The quails were fed with a poisonous feedstuff twice a day at the same feeding amount for a long time, with an average feeding amount of 20 g per day for each quail. Since the feeding started, the body weight was recorded for quails in each treatment; the number of eggs produced on day 40 to 48 was counted; the eggs produced on day 45 to 50 were collected and hatched in a poultry-specific hatcher separately for each treatment; and the stillbirth rate was calculated. In this example, the endpoint effect data were body weight, egg production and stillbirth rate.

Setting [1] is: mass concentration 0.5 mg/Lfeedstuff.
Setting [2] is: mass concentration 2 mg/Lfeedstuff.
[3] abbreviates: mass concentration 7 mg/Lfeedstuff.
Where [4] appears, read: mass concentration 30 mg/Lfeedstuff.
Where [5] appears, read: mass concentration 130 mg/Lfeedstuff.
The mark [6] stands for this setting: mass concentration 1.25 mg/Lfeedstuff.
Setting [7] is: mass concentration 6.25 mg/Lfeedstuff.
Where [8] appears, read: mass concentration 25 mg/Lfeedstuff.
Where [9] appears, read: mass concentration 125 mg/Lfeedstuff.
[10] abbreviates: mass concentration 500 mg/Lfeedstuff.

On to `CNC(=O)CSP(=S)(OC)OC` [Dimethoate, dimethoate], for which, in the data set with Trichogramma (90 mg/L), the “Validation: egg yield compared with blank control” value is “no significant difference”. Also, the “NOEC (smallest NOEC among the endpoint effects)” value in the data set with Trichogramma stood at 100 mg/L. The “NOEC for chronic toxicity in Trichogramma based on the adult survival time” value with Trichogramma was 400 mg/L. Moreover, in the data set with Trichogramma, the “NOEC for chronic toxicity in Trichogramma based on the egg yield” value is given as 100 mg/L. The “NOEC for chronic toxicity in Trichogramma based on the emergence rate” value with Trichogramma was determined as 200 mg/L. The Adult survival time in the data set on Trichogramma (mass concentration 25 mg/L) stood at 3.15 a d; in the data set with Trichogramma (mass concentration 50 mg/L) it was 3.27 a d; in the data set with Trichogramma (mass concentration 100 mg/L) it was 3.30 a d; in the data set with Trichogramma (mass concentration 200 mg/L), 2.67 a d; in the data set on Trichogramma (mass concentration 400 mg/L), 2.32 a d. The Egg yield in the data set with Trichogramma (mass concentration 25 mg/L) stood at 36.1 a eggs; in the data set with Trichogramma (mass concentration 50 mg/L) it was 34.2 a eggs; in the data set on Trichogramma (mass concentration 100 mg/L), 31.6 a eggs; in the data set on Trichogramma (mass concentration 200 mg/L) it was 27.2 b eggs; in the data set with Trichogramma (mass concentration 400 mg/L) it was 20.7 b eggs.
`C/C(=N\C#N)N(C)Cc1ccc(Cl)nc1` [Acetamiprid, acetamiprid]: in the data set with quail (125 mg/L), the “Validation: body weight compared with blank control” value was “no significant difference”, the “Validation: egg production compared with blank control” value is recorded as “no significant difference” and the “Validation: stillbirth rate compared with blank control” value is “no significant difference”. For the same compound, in the data set on quail, the “NOEC for chronic toxicity in quails based on the body weight” value is on record as 130 mg/kgfeedstuff, the “NOEC for chronic toxicity in quails based on the egg production” value came out at 130 mg/kgfeedstuff, the “NOEC for chronic toxicity in quails based on the stillbirth rate” value stood at 130 mg/kgfeedstuff and the “NOEC (smallest NOEC among the endpoint effects)” value is 130 mg/kgfeedstuff. Besides, in the data set on quail (setting [1]), the Body weight is listed as 150.9 a g, the Egg production came out at 0.87 a eggs and the Stillbirth rate stood at 23.4 a %. In the data set with quail (setting [2]), this compound came in with a Body weight of 156.7 a g, an Egg production of 0.86 a eggs and a Stillbirth rate of 16.7 a %. For the same compound, in the data set with quail (setting [3]), the Body weight amounted to 153.6 a g, the Egg production is 0.87 a eggs and the Stillbirth rate is listed as 25.7 a %. Also, in the data set on quail (setting [4]), the Body weight came to 151.9 a g, the Egg production was found to be 0.89 a eggs and the Stillbirth rate is on record as 26.4 a %. For the same compound, in the data set on quail (setting [5]), the Body weight was found to be 145.4 a g, the Egg production is recorded as 0.86 a eggs and the Stillbirth rate is 21.9 a %.
With `O=[N+]([O-])NC1=NCCN1Cc1ccc(Cl)nc1` [Imidacloprid, imidacloprid], the “Validation: emergence rate compared with blank control” value in the data set on Trichogramma (35 mg/L) is recorded as “no significant difference”. Further, in the data set on Trichogramma, the “NOEC (smallest NOEC among the endpoint effects)” value worked out at 40 mg/L, the “NOEC for chronic toxicity in Trichogramma based on the adult survival time” value was found to be 160 mg/L, the “NOEC for chronic toxicity in Trichogramma based on the egg yield” value stood at 80 mg/L and the “NOEC for chronic toxicity in Trichogramma based on the emergence rate” value was 40 mg/L. Besides, in the data set on Trichogramma (mass concentration 10 mg/L), the Adult survival time came out at 3.60 a d, the Egg yield amounted to 37.0 a eggs and the Emergence rate was found to be 90.57 a %. In the data set with Trichogramma (mass concentration 20 mg/L), the Adult survival time was 3.23 a d, the Egg yield is listed as 37.3 a eggs and the Emergence rate was determined as 87.81 a %. In the data set on Trichogramma (mass concentration 40 mg/L), this compound gave an Adult survival time of 3.50 a d, an Egg yield of 36.0 a eggs and an Emergence rate of 78.19 a %. In the data set on Trichogramma (mass concentration 80 mg/L), this compound gave an Adult survival time of 3.21 a d, an Egg yield of 34.2 a eggs and an Emergence rate of 56.12 b %. Further, in the data set with Trichogramma (mass concentration 160 mg/L), the Adult survival time was found to be 3.12 a d, the Egg yield is 28.5 b eggs and the Emergence rate was found to be 27.65 c %.
Regarding `Cc1cc(Cl)ccc1OCC(=O)O` [MCPA], the “Validation: body weight compared with blank control” value in the data set with quail (20 mg/L) is recorded as “no significant difference”. For the same compound, in the data set on quail, the “NOEC for chronic toxicity in quails based on the body weight” value was 25 mg/kgfeedstuff, the “NOEC for chronic toxicity in quails based on the egg production” value amounted to 500 mg/kgfeedstuff, the “NOEC for chronic toxicity in quails based on the stillbirth rate” value came to 25 mg/kgfeedstuff and the “NOEC (smallest NOEC among the endpoint effects)” value is reported as 25 mg/kgfeedstuff. Also, in the data set with quail (setting [6]), the Body weight was 148.5 ab g, the Egg production is 0.97 a eggs and the Stillbirth rate turned out to be 22.4 a %. In the data set with quail (setting [7]), this compound displayed a Body weight of 155.3 ab g, an Egg production of 0.96 a eggs and a Stillbirth rate of 23.2 ab %. In the data set with quail (setting [8]), the Body weight amounted to 150.7 ab g, the Egg production is given as 0.96 a eggs and the Stillbirth rate is 21.2 a %. In the data set on quail (setting [9]), this compound came in with a Body weight of 145.2 b g, an Egg production of 0.95 a eggs and a Stillbirth rate of 26.4 b %. In the data set with quail (setting [10]), this compound registered a Body weight of 159.5 a g, an Egg production of 0.94 a eggs and a Stillbirth rate of 37.3 b %.
